Data set [1] in a line: Dispersibility of active ingredient in acidic suspension with various kinds of acids. It is filed as physicochemical. To be noted: at preparation. Here is the method:
50 g of PVP K30 was dissolved to 800 g of purified water. These aqueous solution were acidified by DL-Malic acid. The compound (I-1) was suspended in the acidic solution under stirring. The suspension was neutralized with 115 g of 13% NaOH aqueous solution to give a suspension. In place of malic acid in Example 3-1, citric acid was used. In place of malic acid in Example 3-1, phosphoric acid was used. No acid was used. Dispersibility of the compound (I-1) in an acidic suspension obtained in Example 3-1 to 3-4 including various kinds of acids was examined. Dispersibility was observed by the naked eyes at the time of preparation of an suspension.

A short description of data set [2]: Dispersibility of a basic compound in a suspension. The data set is classed as physicochemical. To be noted: suspension with DL-malic acid, neutralized with NaOH (Examples 3-1, 4, 5). Here is the method:
50 g of PVP K30 was dissolved to 800 g of purified water. These aqueous solution were acidified by DL-Malic acid. The compound (I-1) was suspended in the acidic solution under stirring. The suspension was neutralized with 115 g of 13% NaOH aqueous solution to give a suspension. In place of the compound (I-1) in Example 3-1, pindolol was used. In place of the compound (I-1) in Example 3-1, noscapine was used. Dispersibility of the compound (I-1) in an acidic suspension obtained in Example 3-1 to 3-4 including various kinds of acids was examined. Dispersibility was observed by the naked eyes at the time of preparation of an suspension. Dispersibility of active ingredient in the suspension obtained in Example 3-1, 4 and 5 was examined in accordance with Experiment 4.

For the compound `CC(C)c1nc(COC(N)=O)n(Cc2ccncc2)c1Sc1cc(Cl)cc(Cl)c1` [Compound (I-1), 5-(3,5-dichlorophenyl)thio-4-isopropyl-1-(4-pyridyl)methyl-1H-imidazol-2-ylmethyl carbamate], the “Dispersibility of drug substance” value in data set [1] (suspension with citric acid (Example 3-2)) is listed as “Good”; in data set [1] (suspension with malic acid (Example 3-1)) it was “Good”; in data set [1] (suspension with no acid (Reference Example 3-4)) it was “Formation”; in data set [1] (suspension with phosphoric acid (Example 3-3)), “Good”; in data set [2] it was “Good”.
`COc1ccc2c(c1OC)C(=O)O[C@@H]2[C@H]1c2c(cc3c(c2OC)OCO3)CCN1C` [Noscapine, noscapine]: the “Dispersibility of drug substance” value in data set [2] was “Good”.
Turning to `CC(C)NCC(O)COc1cccc2[nH]ccc12` (stereo not shown) [Pindolol, pindolol], the “Dispersibility of drug substance” value in data set [2] was “Good”.

Values taken from patent publication US6858230B1, “Process for producing medicinal composition of basic hydrophobic medicinal compound” (Shionogi & Co., Ltd., priority 1999, dated 2005).
